Read-outs that look alike come from different tables or passages of the source.
System: MCF7/AR cells
Assay: MTT cytotoxicity assay, siRNA-transfected MCF7/AR cells
Type: cell-based, human
Details: read-out: IC50 Results (MTT)
Method: III. MTT Cytotoxicity Assays. 24 hours post-transfection, siRNA transfected cells were seeded into 96-well plates at 3×10^3 cells/well. The cells were incubated for 16-24 hours. A range of concentrations of the indicated cytotoxic drugs was added and incubation was continued for an additional 48 hours. 20 μL of MTT (10 mg/mL) was added to each well and the plates were further incubated at 37° C. for 4 hours. The dye was solubilized with DMSO and absorbance measured at 570 nm using a multiwell plate reader (WALLAC). The results were expressed as the average of duplicate wells using the plate reader's Prism software (GraphPad).
Using the MTT cytotoxicity assay, the IC50 (i.e., the concentration at which 50% of the cells are still viable) of MCF7/AR cells transfected with p16 siRNA for various chemotherapeutic agents was next assessed.

[1] = Homo sapiens, MCF7, MCF7/AR cells transfected with GFP siRNA
[2] = Homo sapiens, MCF7, MCF7/AR cells transfected with P16 siRNA (p16 siRNA I)

N.N.[Cl][Pt][Cl] [Cisplatinum, cisplatinum]
IC50 (MCF7/AR cells transfected with GFP siRNA): 21800 nM
IC50 (MCF7/AR cells transfected with P16 siRNA (p16 siRNA I)): 19400 nM

CC[C@]1(O)C[C@@H]2CN(CCc3c([nH]c4ccccc34)[C@@](C(=O)OC)(c3cc4c(cc3OC)N(C)[C@H]3[C@@](O)(C(=O)OC)[C@H](OC(C)=O)[C@]5(CC)C=CCN6CC[C@]43[C@@H]65)C2)C1 [Vinblastin, vinblastin]
IC50 [1]: 2.38 nM
IC50 [2]: 1.42 nM

CC(=O)O[C@H]1C(=O)[C@@]2(C)[C@H]([C@H](OC(=O)c3ccccc3)[C@]3(O)C[C@H](OC(=O)[C@H](O)[C@@H](NC(=O)c4ccccc4)c4ccccc4)C(C)=C1C3(C)C)[C@]1(OC(C)=O)CO[C@@H]1C[C@@H]2O [Taxol, taxol]
IC50 [1]: 23.6 nM
IC50 [2]: 12.5 nM

Reference: patent publication US20060188507A1, “Methods for identifying chemotherapeutic resistance in non-hematopoietic tumors” (priority 2005, published 2006)
